{"source": "patent US6762164B2", "about": "“Use of 3-position cyclosporin derivatives for hair growth” (LG Household & Health Care Ltd., priority 2001, dated 2004)", "tested_on": "Female C57BL/6 mice", "assay": "Test for hair growth promoting effect: hair regrowth on shaved backs of mice", "type": "in vivo", "conditions": "shaved back, 100 μl (conc. 0.1% w/v) applied once a day for 30 days, visual approach", "protocol": "Female C57BL/6 mice of ages 6 to 7 weeks were utilized. After removing hairs on the middle of the back with an electric shaver, the mice were weighed and randomly assigned to the test groups with an even distribution of weights. The mice were given one day for adaptation. From the next day, mice were applied once a day on their backs with cyclosporin A and the cyclosporin A derivatives (Compounds 1 to 7) prepared by HPLC in Example 1 in amounts of 100 μl (conc. 0.1% w/v) for 30 days. The results were determined by visual approach, in terms of degrees of hair regrowth. With respect to respective hair-removed areas, rates of new hair growth were examined and compared."}
{"substance": "[D-2-(methylamino)hexa-4-ynoyl^3] cyclosporin A [Compound 3]", "values": [{"measurement": "Area rate of hair regrowth (%)", "result": 95, "unit": "%"}]}
{"substance": "[D-2-(methylamino)pent-4-ynoyl^3] cyclosporin A [Compound 4]", "values": [{"measurement": "Area rate of hair regrowth (%)", "result": 96, "unit": "%"}]}
{"substance": "[D-2-(methylthio)-Sar^3] cyclosporin A [Compound 5]", "values": [{"measurement": "Area rate of hair regrowth (%)", "result": 93, "unit": "%"}]}
{"substance": "[N-methyl-D-Abu3] cyclosporin A [Compound 1]", "values": [{"measurement": "Area rate of hair regrowth (%)", "result": 95, "unit": "%"}]}
{"substance": "[N-methyl-D-Nva^3] cyclosporin A [Compound 2]", "values": [{"measurement": "Area rate of hair regrowth (%)", "result": 91, "unit": "%"}]}
{"substance": "[N-methyl-D-Ser^3] cyclosporin A [Compound 7]", "values": [{"measurement": "Area rate of hair regrowth (%)", "result": 90, "unit": "%"}]}
{"substance": "[N-methyl-O-propenyl-D-Ser^3] cyclosporin A [Compound 6]", "values": [{"measurement": "Area rate of hair regrowth (%)", "result": 94, "unit": "%"}]}
{"substance": "cyclosporin A [reference compound]", "values": [{"measurement": "Area rate of hair regrowth (%)", "result": 91, "unit": "%"}]}
